Results on three compounds are retold here after ChEMBL document CHEMBL4219034, “Synthesis, antimicrobial activity, structure-activity relationship and cytotoxic studies of a new series of functionalized (Z)-3-(2-oxo-2-substituted ethylidene)-3,4-dihydro-2H-benzo[b][1,4]oxazin-2-ones” (Bioorg Med Chem Lett, 2017).

For series [1], the system named is Streptomyces griseus. Kind of series: Antibacterial activity against Streptomyces griseus MTCC 4734 incubated for 24 hrs by serial dilution method. Type of series: functional. As to conditions: MTCC 4734, 24 h.
In series [2] the test system is Staphylococcus aureus. Kind of series: Antibacterial activity against Staphylococcus aureus MTCC 3381 incubated for 24 hrs by serial dilution method. Type of series: functional. As to conditions: MTCC 3381, 24 h.
For series [3], the system named is Bacillus subtilis. Kind of series: Antibacterial activity against Bacillus subtilis MTCC 10619 incubated for 24 hrs by serial dilution method. Type of series: functional. As to conditions: MTCC 10619, 24 h.
Series [4] has as its system Escherichia coli. Briefly: Antibacterial activity against Escherichia coli MTCC 443 incubated for 24 hrs by serial dilution method. Type of series: functional. As to conditions: MTCC 443, 24 h.
Series [5] has as its system Fusarium oxysporum. Briefly: Antifungal activity against Fusarium oxysporum ATCC 62506 incubated for 24 hrs by serial dilution method. Type of series: functional. As to conditions: ATCC 62506, 24 h.
The subject of series [6] is Aspergillus niger. Briefly: Antifungal activity against Aspergillus niger ATCC 9029 incubated for 24 hrs by serial dilution method. Type of series: functional.
Series [7] has as its system Talaromyces funiculosus. Briefly: Antifungal activity against Penicillium funiculosum ATCC 11797 incubated for 24 hrs by serial dilution method. Type of series: functional. As to conditions: ATCC 11797, 24 h.
The test system of series [8] is Trichoderma reesei. Briefly: Antifungal activity against Trichoderma reesei ATCC 13631 incubated for 24 hrs by serial dilution method. Type of series: functional.
In series [9] the test system is Streptomyces griseus. Briefly: Antibacterial activity against Streptomyces griseus MTCC 4734 at 100 ug/ml incubated for 12 hrs by agar disc diffusion assay. Type of series: functional. As to conditions: MTCC 4734, 12 h, read-out: IZ. On the technique in general: Agar diffusion results depend on both activity and mobility in agar.
In series [10] the test system is Staphylococcus aureus. Kind of series: Antibacterial activity against Staphylococcus aureus MTCC 3381 at 100 ug/ml incubated for 12 hrs by agar disc diffusion assay. Type of series: functional. As to conditions: MTCC 3381, 12 h, read-out: IZ.
Series [11] deals with Bacillus subtilis. Briefly: Antibacterial activity against Bacillus subtilis MTCC 10619 at 100 ug/ml incubated for 12 hrs by agar disc diffusion assay. Type of series: functional. As to conditions: MTCC 10619, 12 h, read-out: IZ.
For series [12], the system named is Escherichia coli. Briefly: Antibacterial activity against Escherichia coli MTCC 443 at 100 ug/ml incubated for 12 hrs by agar disc diffusion assay. Type of series: functional. As to conditions: MTCC 443, 12 h, read-out: IZ.
The subject of series [13] is Fusarium oxysporum. Kind of series: Antifungal activity against Fusarium oxysporum ATCC 62506 at 100 ug/ml incubated for 72 hrs by agar disc diffusion assay. As to conditions: ATCC 62506, 72 h, read-out: IZ. Type of series: functional.
Series [14] deals with Aspergillus niger. Kind of series: Antifungal activity against Aspergillus niger ATCC 9029 at 100 ug/ml incubated for 72 hrs by agar disc diffusion assay. Type of series: functional. As to conditions: for zone of inhibition at 100 µg/mL: ATCC 9029, 72 h, read-out: IZ.
The subject of series [15] is Talaromyces funiculosus. Kind of series: Antifungal activity against Penicillium funiculosum ATCC 11797 at 100 ug/ml incubated for 72 hrs by agar disc diffusion assay. As to conditions: ATCC 11797, 72 h, read-out: IZ. Type of series: functional.
Series [16] relates to Trichoderma reesei. Kind of series: Antifungal activity against Trichoderma reesei ATCC 13631 at 100 ug/ml incubated for 72 hrs by agar disc diffusion assay. Type of series: functional. As to conditions: for zone of inhibition at 100 µg/mL: ATCC 13631, 72 h, read-out: IZ.
Series [17] can be described thus: Cytotoxicity against mouse NIH/3T3 cells assessed as cell viability at 25 ug/ml after 72 hrs by MTT assay relative to control. Type of series: cell-based, NIH3T3. As to conditions: read-out: Activity. On the technique in general: Tetrazolium assays rely on reduction of a dye to a coloured formazan, in cell work by metabolically active cells.
Series [18] can be described thus: Cytotoxicity against mouse NIH/3T3 cells assessed as cell viability at 50 ug/ml after 72 hrs by MTT assay relative to control. Type of series: cell-based, NIH3T3. As to conditions: read-out: Activity.
A short description of series [19]: Cytotoxicity against mouse NIH/3T3 cells assessed as cell viability at 100 ug/ml after 72 hrs by MTT assay relative to control. Type of series: cell-based, NIH3T3. As to conditions: read-out: Activity.
A short description of series [20]: Cytotoxicity against mouse NIH/3T3 cells assessed as cell viability at 250 ug/ml after 72 hrs by MTT assay relative to control. Type of series: cell-based, NIH3T3. As to conditions: read-out: Activity.
Series [21] relates to Staphylococcus aureus. Kind of series: Potency index, ratio of ampicillin MIC to compound MIC for Staphylococcus aureus MTCC 3381 by serial dilution method. Type of series: functional.
The test system of series [22] is Streptomyces griseus. Kind of series: Potency index, ratio of ampicillin MIC to compound MIC for Streptomyces griseus MTCC 4734 by serial dilution method. Type of series: functional.
Series [23] has as its system Bacillus subtilis. Kind of series: Potency index, ratio of ampicillin MIC to compound MIC for Bacillus subtilis MTCC 10619 by serial dilution method. Type of series: functional.
The subject of series [24] is Bacillus subtilis. Kind of series: Potency index, ratio of chloramphenicol MIC to compound MIC for Bacillus subtilis MTCC 10619 by serial dilution method. Type of series: functional.

By MIC is commonly meant the least concentration at which growth counts as inhibited.

Values after ≈ are worked out from the molar mass of the structure shown. Active and inactive are the calls of the source. The rule behind the calls is not given here.

Turning to `O=C1Oc2ccc([N+](=O)[O-])cc2N/C1=C\C(=O)c1ccc(-c2ccccc2)cc1`, the MIC in series [1] came out at 12.5 µg/mL (≈ 32.4 µM); in [2] it was 6.25 µg/mL (≈ 16.2 µM); in series [3], 25 µg/mL (≈ 64.7 µM); in [4] it was 25 µg/mL (≈ 64.7 µM); in [5], 50 µg/mL (≈ 129 µM); in [7], 25 µg/mL (≈ 64.7 µM). Further, it took 100 µg/mL (≈ 259 µM) to inhibit growth in series [8] (ATCC 13631, 24 h) (MIC). Besides, the MIC result in series [6] was “inactive”. Besides, the zone of inhibition at 100 µg/mL in [9] was 20 mm; in series [10], 20 mm; in [11], 18 mm; in [12], 16 mm; in series [13] it was 14 mm; in series [15], 16 mm. The zone of inhibition at 100 µg/mL in series [16] was 10 mm. For the same compound, the “inhibition zone (IZ)” value in [14] was “inactive”. In series [17], the viability at 72 h, 25 ug/ml was 91%. Also, the viability at 72 h, 50 ug/ml in [18] stood at 83.5%. Further, the viability at 72 h, 100 ug/ml in series [19] turned out to be 77.6%. The viability at 72 h, 250 ug/ml in series [20] was 77.1%. In addition, the Ratio in [21] is 2.

Take `O=C1Oc2cc([N+](=O)[O-])ccc2N/C1=C\C(=O)C1CC1`: the MIC was determined as 3.12 µg/mL (≈ 11.4 µM) in series [1]; 12.5 µg/mL (≈ 45.6 µM) in series [2]; 3.12 µg/mL (≈ 11.4 µM) in series [3]; 25 µg/mL (≈ 91.2 µM) in series [4]; 50 µg/mL (≈ 182 µM) in series [5]; 100 µg/mL (≈ 365 µM) in [6] (ATCC 9029, 24 h). The MIC in [7] stood at 100 µg/mL (≈ 365 µM). In [8], the MIC entry is “inactive”. Moreover, the zone of inhibition at 100 µg/mL in series [9] turned out to be 28 mm; in series [10] it was 10 mm; in series [11], 24 mm; in series [12], 18 mm; in series [13], 10 mm; in series [14] it was 8 mm. In addition, the zone of inhibition at 100 µg/mL in series [15] came to 6 mm. The “inhibition zone (IZ)” value in series [16] was “inactive”. Also, the viability at 72 h, 25 ug/ml in [17] worked out at 94.3%. In series [18], the viability at 72 h, 50 ug/ml came out at 90.9%. Further, in series [19], the viability at 72 h, 100 ug/ml amounted to 83.3%. Besides, the viability at 72 h, 250 ug/ml in series [20] amounted to 76.3%. Also, the Ratio in series [22] came out at 4; in [23], 8; in [24] it was 2.

Regarding `O=C1Oc2ccc([N+](=O)[O-])cc2N/C1=C\C(=O)c1ccc(C2CCCCC2)cc1`, the minimal inhibitory concentration (MIC) in series [1] is 12.5 µg/mL (≈ 31.9 µM); in series [2], 6.25 µg/mL (≈ 15.9 µM); in series [3], 12.5 µg/mL (≈ 31.9 µM); in series [4] it was 25 µg/mL (≈ 63.7 µM); in [5], 50 µg/mL (≈ 127 µM); in [6] (ATCC 9029, 24 h), 25 µg/mL (≈ 63.7 µM). The minimal inhibitory concentration (MIC) in series [7] was determined as 25 µg/mL (≈ 63.7 µM); in series [8] (ATCC 13631, 24 h), 25 µg/mL (≈ 63.7 µM). For the same compound, the zone of inhibition at 100 µg/mL in [9] was 22 mm; in series [10], 20 mm; in series [11] it was 16 mm; in series [12], 18 mm; in series [13], 10 mm; in [14], 18 mm. The results for the zone of inhibition at 100 µg/mL in series [15] and in [16] were 16 mm and 20 mm, respectively. The viability at 72 h, 25 ug/ml in series [17] stood at 98.2%. For the same compound, the viability at 72 h, 50 ug/ml in series [18] stood at 89.1%. Also, the viability at 72 h, 100 ug/ml in series [19] is 82.5%. Further, the viability at 72 h, 250 ug/ml in [20] came to 79.2%. Further, the Ratio in series [21] is 2.
